Assay results: US12611378B2 (Bausch Health Ireland Limited, priority 2020, dated 2026)

Assay: Regional bioavailability of rifaximin, open-label 5-way crossover study in healthy male subjects
Assay type: in vivo, human
Conditions: based on comparisons of AUC0-24 with AUCact-24, geometric mean
Description: Blood samples were collected pre-dose and at specified time points after dosing for PK analysis.

Frel (Regimen B: 150 mg rifaximin SSD delivered to the proximal small bowel): 36.4%
Frel (Regimen C: 150 mg rifaximin SSD delivered to the distal small bowel): 2.09%
Frel (Regimen D: 150 mg rifaximin SSD delivered to the colon): 0.216%
Frel (Regimen E: 150 mg rifaximin SSD delivered to the mid small bowel): 7.08%
SMILES: CO[C@H]1/C=C/O[C@@]2(C)Oc3c(C)c(O)c4c(O)c(c5c(nc6cc(C)ccn65)c4c3C2=O)NC(=O)/C(C)=C\C=C\[C@H](C)[C@H](O)[C@@H](C)[C@@H](O)[C@@H](C)[C@H](OC(C)=O)[C@@H]1C [Rifaximin, 4-Deoxy-4′-methylpyrido[1′,2′-1,2]imidazo[5,4-c]rifamycin SV]
